Source: ChEMBL document CHEMBL1125524, “Adenosine A1 antagonists. 2. Structure-activity relationships on diuretic activities and protective effects against acute renal failure” (J Med Chem, 1992)

How the values were obtained:
Rattus norvegicus [1] = assay: Oral diuretic activity was measured after oral administration of 25 mg/kg to rats(control volume is 0.80+/-0.13); assay type: functional, Urine
Rattus norvegicus [2] = assay: Ratio of urinary excretion value (urinary volume) in treated rats to that in control rats, at a peroral dose of 25 mg/Kg; assay type: functional, Urine
Rattus norvegicus [3] = assay: Percent inhibition of Urea nitrogen by the compound given as ratio of UN value in treated to vehicle treated ones fter intraperitoneal administration of 10 mg/kg of compound to rats(vehicle 137.9+/-8.5); assay type: functional; conditions: ip
Rattus norvegicus [4] = assay: Serum creatinine concentration measured after intraperitoneal administration of 10 mg/kg of compound to rats (vehicle0.63+/-0.29); assay type: functional
Rattus norvegicus [5] = assay: Percent inhibition of serum creatinine by the compound given as ratio of Cr value in treated to vehicle treated ones after intraperitoneal administration of 10 mg/kg of compound to rats (vehicle0.63+/-0.29); assay type: functional; conditions: ip
Rattus norvegicus [6] = assay: Effect on urinary excretion potassium and sodium after oral administration of 25 mg/kg to rats(potassium and sodium excretion in control rat is 0.160+/-0.017); assay type: functional, Urine
Adenosine A2 receptor = Adenosine A2 receptor (Rattus norvegicus, UniProt P29276+P30543)
Rattus norvegicus [7] = assay: Ratio of urinary excretion value (Na+ concentration) in treated rats to that in control rats, at a peroral dose of 25 mg/Kg; assay type: functional, Urine
Rattus norvegicus [8] = assay: Ratio of sodium ion/potassium ion concentration in treated rats to that in control rats, at a peroral dose of 25 mg/Kg; assay type: functional
Adenosine receptor A1 = biological target: T1, Adenosine receptor A1 (Cavia porcellus, UniProt P47745)
T1 sequence (P47745 whole entry): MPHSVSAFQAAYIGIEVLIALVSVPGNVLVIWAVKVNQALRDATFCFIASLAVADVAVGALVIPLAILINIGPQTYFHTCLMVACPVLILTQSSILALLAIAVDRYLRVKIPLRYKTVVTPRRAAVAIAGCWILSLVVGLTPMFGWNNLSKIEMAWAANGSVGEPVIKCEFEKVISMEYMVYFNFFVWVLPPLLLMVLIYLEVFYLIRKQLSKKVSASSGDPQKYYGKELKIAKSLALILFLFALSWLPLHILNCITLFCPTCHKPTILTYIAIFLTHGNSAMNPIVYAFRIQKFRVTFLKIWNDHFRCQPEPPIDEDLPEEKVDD
Description: Binding affinity against adenosine A1 receptor in guinea pig forebrain membranes using N6-[3H]cyclohexyladenosine as radioligand

Rattus norvegicus [9] = assay: Urea nitrogen concentration measured after intraperitoneal administration of 10 mg/kg of compound to rats(vehicle 137.9+/-8.5); assay type: functional
Rattus norvegicus [10] = assay: Oral diuretic activity was measured after oral administration of 0.025 mg/kg to rats(control volume is 0.82+/-0.05); assay type: functional, Urine
Rattus norvegicus [11] = assay: Percent inhibition of serum creatinine by the compound given as ratio of Cr value in treated to vehicle treated ones after intraperitoneal administration of 1 mg/kg of compound to rats(vehicle 2.75+/-0.43); assay type: functional; conditions: ip
Rattus norvegicus [12] = assay: Percent inhibition of Urea nitrogen by the compound given as ratio of UN value in treated to vehicle treated ones after intraperitoneal administration of 1 mg/kg of compound to rats(vehicle 123.2+/-14.2); assay type: functional; conditions: ip
Rattus norvegicus [13] = assay: Oral diuretic activity was measured after oral administration of 0.1 mg/kg to rats(control volume is 0.92+/-0.05); assay type: functional, Urine
Rattus norvegicus [14] = assay: Ratio of sodium ion/potassium ion concentration in treated rats to that in control rats, at a peroral dose of 0.1 mg/Kg; assay type: functional
Rattus norvegicus [15] = assay: Ratio of urinary excretion value (urinary volume) in treated rats to that in control rats, at a peroral dose of 6.25 mg/Kg; assay type: functional, Urine
Rattus norvegicus [16] = assay: Ratio of urinary excretion value (urinary volume) in treated rats to that in control rats, at a peroral dose of 0.1 mg/Kg; assay type: functional, Urine
Rattus norvegicus [17] = assay: Effect on urinary excretion potassium and sodium after oral administration of 0.1 mg/kg to rats(potassium and sodium excretion in control rat is 0.143+/-0.013); assay type: functional, Urine
Rattus norvegicus [18] = assay: Ratio of sodium ion/potassium ion concentration in treated rats to that in control rats, at a peroral dose of 0.025 mg/Kg; assay type: functional
Rattus norvegicus [19] = assay: Effect on urinary excretion potassium and sodium after oral administration of 0.025 mg/kg to rats(potassium and sodium excretion in control rat is 0.183+/-0.012); assay type: functional, Urine
Rattus norvegicus [20] = assay: Ratio of urinary excretion value (Na+ concentration) in treated rats to that in control rats, at a peroral dose of 0.4 mg/Kg; assay type: functional, Urine
Rattus norvegicus [21] = assay: Ratio of urinary excretion value (urinary volume) in treated rats to that in control rats, at a peroral dose of 0.005 mg/Kg; assay type: functional, Urine
Rattus norvegicus [22] = assay: Ratio of urinary excretion value (Na+ concentration) in treated rats to that in control rats, at a peroral dose of 0.025 mg/Kg; assay type: functional, Urine
Rattus norvegicus [23] = assay: Effect on urinary excretion potassium and sodium after oral administration of 0.0025 mg/kg to rats(potassium and sodium excretion in control rat is 0.146+/-0.006); assay type: functional, Urine
Rattus norvegicus [24] = assay: Ratio of sodium ion/potassium ion concentration in treated rats to that in control rats, at a peroral dose of 1.6 mg/Kg; assay type: functional
Rattus norvegicus [25] = assay: Ratio of urinary excretion value (urinary volume) in treated rats to that in control rats, at a peroral dose of 0.025 mg/Kg; assay type: functional, Urine
Rattus norvegicus [26] = species: Rattus norvegicus; assay type: functional, Urine; conditions: po, 1.6 mg/kg
Rattus norvegicus [27] = assay: Ratio of urinary excretion value (Na+ concentration) in treated rats to that in control rats, at a peroral dose of 0.1 mg/Kg; assay type: functional, Urine
Rattus norvegicus [28] = assay: Ratio of urinary excretion value (urinary volume) in treated rats to that in control rats, at a peroral dose of 1.6 mg/Kg; assay type: functional, Urine
Rattus norvegicus [29] = assay: Oral diuretic activity was measured after oral administration of 0.0025 mg/kg to rats(control volume is 0.95+/-0.12); assay type: functional, Urine
Rattus norvegicus [30] = assay: Serum creatinine concentration measured after intraperitoneal administration of 1 mg/kg of compound to rats(vehicle 2.75+/-0.43); assay type: functional
Rattus norvegicus [31] = assay: Ratio of sodium ion/potassium ion concentration in treated rats to that in control rats, at a peroral dose of 0.0025 mg/Kg; assay type: functional
Rattus norvegicus [32] = assay: Effect on urinary excretion potassium and sodium after oral administration of 25 mg/kg to rats(potassium and sodium excretion in control rat is 0.138+/-0.008); assay type: functional, Urine
Rattus norvegicus [33] = assay: Ratio of urinary excretion value (Na+ concentration) in treated rats to that in control rats, at a peroral dose of 0.0025 mg/Kg; assay type: functional, Urine
Rattus norvegicus [34] = assay: Oral diuretic activity was measured after oral administration of 25 mg/kg to rats(control volume is 0.66+/-0.04); assay type: functional, Urine
Rattus norvegicus [35] = assay: Oral diuretic activity was measured after oral administration of 0.005 mg/kg to rats(control volume is 0.76+/-0.01); assay type: functional, Urine
Rattus norvegicus [36] = assay: Effect on urinary excretion potassium and sodium after oral administration of 1.6 mg/kg to rats(potassium and sodium excretion in control rat is 0.173+/-0.016); assay type: functional, Urine
Rattus norvegicus [37] = assay: Ratio of urinary excretion value (urinary volume) in treated rats to that in control rats, at a peroral dose of 0.4 mg/Kg; assay type: functional, Urine
Rattus norvegicus [38] = assay: Effect on urinary excretion potassium and sodium after oral administration of 0.005 mg/kg to rats(potassium and sodium excretion in control rat is 0.160+/-0.006); assay type: functional, Urine
Rattus norvegicus [39] = assay: Urea nitrogen concentration measured after intraperitoneal administration of 1 mg/kg of compound to rats(vehicle 123.2+/-14.2); assay type: functional
Rattus norvegicus [40] = assay: Effect on urinary excretion potassium and sodium after oral administration of 0.4 mg/kg to rats(potassium and sodium excretion in control rat is 0.261+/-0.008); assay type: functional, Urine
Rattus norvegicus [41] = assay: Ratio of urinary excretion value (Na+ concentration) in treated rats to that in control rats, at a peroral dose of 1.6 mg/Kg; assay type: functional, Urine
Rattus norvegicus [42] = assay: Ratio of urinary excretion value (Na+ concentration) in treated rats to that in control rats, at a peroral dose of 0.005 mg/Kg; assay type: functional, Urine
Rattus norvegicus [43] = assay: Ratio of urinary excretion value (Na+ concentration) in treated rats to that in control rats, at a peroral dose of 6.25 mg/Kg; assay type: functional, Urine
Rattus norvegicus [44] = assay: Ratio of sodium ion/potassium ion concentration in treated rats to that in control rats, at a peroral dose of 0.4 mg/Kg; assay type: functional
Rattus norvegicus [45] = assay: Ratio of sodium ion/potassium ion concentration in treated rats to that in control rats, at a peroral dose of 0.005 mg/Kg; assay type: functional
Rattus norvegicus [46] = assay: Oral diuretic activity was measured after oral administration of 0.4 mg/kg to rats(control volume is 1.4+/-0.05); assay type: functional, Urine
Rattus norvegicus [47] = assay: Ratio of urinary excretion value (urinary volume) in treated rats to that in control rats, at a peroral dose of 0.0025 mg/Kg; assay type: functional, Urine

CCCn1c(=O)c2nc(CC34CC5CC(CC(C5)C3)C4)[nH]c2n(CCC)c1=O
Urine volume (Rattus norvegicus [1]): 0.51 ml 6hr-1 100g-1 | T/C (Rattus norvegicus [2]): 0.64 | inhibition in vivo at 10 mg/kg (Rattus norvegicus [3]): 15% | Cr (Rattus norvegicus [4]): 3.21 mg/dL | inhibition in vivo at 10 mg/kg (Rattus norvegicus [5]): 12% | Na (Rattus norvegicus [6]): 0.108 m equiv 6hr-1 100g-1 | Ki (Adenosine A2 receptor): > 100000 nM | T/C (Rattus norvegicus [7]): 0.67 | Na+/K+ (Rattus norvegicus [8]): 0.84 | Ki (Adenosine receptor A1): 880 nM | UN (Rattus norvegicus [9]): 117.8 mg/dL

CCCn1c(=O)c2nc(C34CC5CC(CC3C5)C4)[nH]c2n(CCC)c1=O [ROLOFYLLINE]
Urine volume (Rattus norvegicus [10]): 1.75 ml 6hr-1 100g-1 | inhibition in vivo at 1 mg/kg (Rattus norvegicus [11]): 47% | T/C (Rattus norvegicus [2]): 4.15 | inhibition in vivo at 1 mg/kg (Rattus norvegicus [12]): 46% | Urine volume (Rattus norvegicus [13]): 2.44 ml 6hr-1 100g-1 | Na+/K+ (Rattus norvegicus [14]): 1.9 | T/C (Rattus norvegicus [15]): 2.9 | T/C (Rattus norvegicus [16]): 2.65 | Na (Rattus norvegicus [17]): 0.334 m equiv 6hr-1 100g-1 | Na+/K+ (Rattus norvegicus [18]): 1.45 | Na (Rattus norvegicus [19]): 0.331 m equiv 6hr-1 100g-1 | T/C (Rattus norvegicus [20]): 1.7 | T/C (Rattus norvegicus [21]): 1.83 | T/C (Rattus norvegicus [22]): 1.81 | Na (Rattus norvegicus [23]): 0.258 m equiv 6hr-1 100g-1 | Na+/K+ (Rattus norvegicus [24]): 1.93 | T/C (Rattus norvegicus [25]): 2.13 | Urine volume (Rattus norvegicus [26]): 2.77 ml 6hr-1 100g-1 | T/C (Rattus norvegicus [27]): 2.34 | T/C (Rattus norvegicus [28]): 2.61 | Urine volume (Rattus norvegicus [29]): 1.61 ml 6hr-1 100g-1 | Cr (Rattus norvegicus [30]): 2 mg/dL | Na+/K+ (Rattus norvegicus [31]): 1.59 | Na (Rattus norvegicus [32]): 0.457 m equiv 6hr-1 100g-1 | T/C (Rattus norvegicus [33]): 1.76 | Urine volume (Rattus norvegicus [34]): 2.74 ml 6hr-1 100g-1 | Urine volume (Rattus norvegicus [35]): 1.39 ml 6hr-1 100g-1 | Na (Rattus norvegicus [36]): 0.399 m equiv 6hr-1 100g-1 | Ki (Adenosine A2 receptor): 380 nM | T/C (Rattus norvegicus [37]): 1.86 | T/C (Rattus norvegicus [7]): 3.44 | Na (Rattus norvegicus [38]): 0.256 m equiv 6hr-1 100g-1 | Na+/K+ (Rattus norvegicus [8]): 2.05 | UN (Rattus norvegicus [39]): 66.4 mg/dL | Na (Rattus norvegicus [40]): 0.447 m equiv 6hr-1 100g-1 | T/C (Rattus norvegicus [41]): 2.3 | T/C (Rattus norvegicus [42]): 1.6 | T/C (Rattus norvegicus [43]): 2.64 | Na+/K+ (Rattus norvegicus [44]): 1.42 | Na+/K+ (Rattus norvegicus [45]): 1.11 | Urine volume (Rattus norvegicus [46]): 2.64 ml 6hr-1 100g-1 | T/C (Rattus norvegicus [47]): 1.69
